From patent US9945845B2, “Methods of screening using amphibians” (priority 2009, dated 2018)
Where a name gives a salt, the structure may show the parent alone. Read-outs that look alike come from different tables or passages of the source.

System: Xenopus embryos
Details: for Type of edema Periocular: * = causing bulging eyes, # = bilateral, causing narrow-set eyes; for Type of edema Ventral: ‡ = edemas also detected in the gut; for Lethality: — = no stage of lethality given
Description: 10-μl aliquots of the chemicals were transferred from the mother plates with a liquid handling robot (Aquarius, Tecan) into 96-well tissue culture plates to generate diluted stock plates (2 mM in DMSO; 50 μl final volume). […] Once embryos reached stage 31 (37 hpf), 10-μl aliquots of the diluted chemicals were added to the wells. […] Negative control wells contained embryos in screening medium and 0.1×MMR only. Embryos were treated with the chemicals in a humidified incubator at 23° C. over a timeframe of 4 days. Embryos were manually scored for the presence of edema or other morphological phenotypes using a teaching dissecting microscope (SV6; Carl Zeiss). Two investigators performed separately the scoring daily at stages 39 (56 hpf), 41 (76 hpf), 45 (98 hpf), and 47 (120 hpf). Dead embryos were removed and 100 μl of water was added daily to each well to compensate for fluid evaporation. […] For imaging at the end of the experiments. Xenopus tadpoles were anesthetized with 0.05% tricaine (Sigma #A5040) in 0.1×MMR. Images were captured using a stereomicroscope (SteREO Lumar V12; Carl Zeiss) equipped with a digital camera (AxioCam Color; Carl Zeiss).
Xenopus late tailbud embryos at stage 31 (37 hpf) were selected for compound treatment. […] Embryos were arrayed into 48-well dishes (five per well) and treated with test compounds at a concentration of 20 μM in the presence of 1% DMSO. […] All 48-well dishes also contained replicates of negative controls (1% DMSO). Embryos were monitored daily over a period of four days for edema formation. In addition, drug-induced lethality and other externally visible phenotypes were scored. On average, 320 compounds were screened per week.

[1] = compounds causing cytotoxicity, 20 μM, 1% DMSO, treatment from stage 31, Nieuwkoop & Faber stage
[2] = compounds causing edema, 20 μM, 1% DMSO, treatment from stage 31, scored to stage 47
[3] = onset of edema, 20 μM, 1% DMSO, treatment from stage 31, Nieuwkoop & Faber stage
[4] = compounds causing lethality, 20 μM, 1% DMSO, treatment from stage 31, Nieuwkoop & Faber stage
[5] = onset of pigmentation defects, 20 μM, 1% DMSO
[6] = compounds causing other phenotypic defects, 20 μM, scored to stage 47
[7] = onset of other phenotypic defects, 20 μM, 1% DMSO

## CC(C)=CCCC(C)=CCCC(C)=CCSc1ccccc1C(=O)O [Farnesylthiosalicylic acid]
[1]
  Lethality (NF): 32 NF

## C/C=C(/C)C(=O)O[C@H]1C(C)=C2[C@H]([C@@H]1OC(=O)CCCCCCC)[C@@](C)(OC(C)=O)C[C@H](OC(=O)CCC)[C@@]1(O)[C@H]2OC(=O)[C@@]1(C)O [Thapsigargin]
[1]
  Lethality (NF): 32 NF

## O=C1Cc2c([nH]c3ccc(Br)cc23)-c2ccccc2N1 [Kenpaullone]
Embryonic stage
  Type of edema Periocular: 45 embryonic stages according to Nieuwkoop and Faber (NF)
  Type of edema Ventral: 45 embryonic stages according to Nieuwkoop and Faber (NF)

## C[C@H]1CCC/C=C/[C@@H]2C[C@H](O)C[C@H]2[C@H](O)/C=C/C(=O)O1 [Brefeldin A]
[1]
  Lethality (NF): 33/34

## COC[C@H]1OC(=O)c2coc3c2[C@@]1(C)C1=C(C3=O)[C@@H]2CCC(=O)[C@@]2(C)C[C@H]1OC(C)=O [Wortmannin from Penicillium funiculosum, Wortmannin]
[1]
  Lethality (NF): 33/34

## O=C(O)c1ccccc1Nc1cccc(OCc2ccc3ccccc3n2)c1 [SR 2640, 2-[[3-(2-Quinolinylmethoxy)phenyl]amino]-benzoic acid]
[1]
  Lethality (NF): 32 NF

## CCCCCCCCCCCCCC(=O)O[C@@H]1[C@@H](C)[C@@]2(O)[C@@H](C=C(CO)C[C@]3(O)C(=O)C(C)=C[C@@H]23)[C@@H]2C(C)(C)[C@]12OC(C)=O [Phorbol 12-myristate 13-acetate]
[1]
  Lethality (NF): 32 NF

## O.c1cnc2c(c1)ccc1cccnc12 [1,10-Phenanthroline monohydrate]
[2]
  Lethality (NF): 46 NF
[3]
  Onset (NF): 39/40

## COC(=O)c1c(C)[nH]c(C)c1C(=O)c1ccccc1Cc1ccccc1 [FPL 64176, 2,5-Dimethyl-4-[2-(phenylmethyl)benzoyl]-1H-pyrrole-3-carboxylic acid methyl ester]
[4]
  Lethality (NF): 40 NF

## CC[C@@H]1Cc2cc(O)ccc2C2=C1c1ccc(O)cc1C[C@H]2CC [(5R, 11R)-5,11-Diethyl-5,6,11,12-tetrahydro-2,8-chrysenediol]
[4]
  Lethality (NF): 41 NF

## Cc1nc2sccn2c(=O)c1CCN1CCC(=C(c2ccccc2)c2ccc(F)cc2)CC1 [Diacylglycerol kinase inhibitor I]
Embryonic stage
  Type of edema Periocular: 45 embryonic stages according to Nieuwkoop and Faber (NF)
  Type of edema Ventral: 45 embryonic stages according to Nieuwkoop and Faber (NF)
[3]
  Onset (NF): 45 NF

## C#C[C@]1(O)CC[C@H]2[C@@H]3CCC4=Cc5nc6nc7ccccc7n6cc5C[C@]4(C)[C@H]3CC[C@@]21C [WIN 62,577, 17-beta-Hydroxy-17-alpha-ethynyl-delta-4-androstano(3,2-b)pyrimido(1,2-a)benzimidazole]
Compounds causing pigmentation defects, 20 μM, scored to stage 47
  Lethality (NF): 42 NF
[5]
  Onset (NF): 33/34

## CC(C)(Sc1ccc(CCN(CCCCC2CCCCC2)C(=O)NC2CCCCC2)cc1)C(=O)O [GW7647]
[1]
  Lethality (NF): 32 NF

## Cl.Cl.Fc1ccc(C(OCCN2CCN(CCCc3ccccc3)CC2)c2ccc(F)cc2)cc1 [GBR-12909 dihydrochloride, 1-[2-[bis(4-Fluorophenyl)methoxy]ethyl]-4-[3-phenylpropyl]piperazine dihydrochloride]
Embryonic stage
  Type of edema Pronephric: 45 embryonic stages according to Nieuwkoop and Faber (NF)
  Type of edema Periocular: 45 embryonic stages according to Nieuwkoop and Faber (NF)
  Type of edema Ventral: 45 embryonic stages according to Nieuwkoop and Faber (NF)

## CN1CCc2cccc3c2[C@H]1Cc1ccc(O)c(O)c1-3 [Apomorphine hydrochloride hemihydrate, 10,11-Dihydroxyaporphine hydrochloride hemihydrate]
[5]
  Onset (NF): 33/34

## COc1cc2nc(N3CCN(C(=O)OCc4ccccc4)[C@H](C(=O)NC(C)(C)C)C3)nc(N)c2cc1OC [L-765,314, (2S)-4-(4-Amino-6,7-dimethoxy-2-quinazolinyl)-2-[[(1,1-Dimethylethyl)amino]carbonyl]-1-piperazinecarboxylic acid, phenylmethyl ester]
Embryonic stage
  Type of edema Periocular: 41/42 #
  Type of edema Ventral: 45 embryonic stages according to Nieuwkoop and Faber (NF)
[3]
  Onset (NF): 41/42

## CC(C)Cc1ccc(C(C)C(=O)O)cc1 (racemic) [(±)-Ibuprofen, alpha-Methyl-4-(isobutyl)phenylacetic acid]
Xenopus laevis, in vivo
  Lethality (NF): 45 NF

## O.c1cnc2c(c1)ccc1cccnc12 [1,10-Phenenthroline monohydrate]
Embryonic stage
  Type of edema Pericordial: 39/40
  Lethality: 46 embryonic stages according to Nieuwkoop and Faber (NF)
  Type of edema Ventral: 41/42

## CCCCCCCCCCCCCCCCCC(=O)NCC(COP(=O)([O-])OCC[N+](C)(C)C)OCC (racemic) [rac-2-Ethoxy-3-octadecanamido-1-propylphospocholine]
[1]
  Lethality (NF): 32 NF

## Cc1nc2sccn2c(=O)c1CCN1CCC(=C(c2ccc(F)cc2)c2ccc(F)cc2)CC1 [Ritanserin]
Embryonic stage
  Type of edema Pronephric: 45 embryonic stages according to Nieuwkoop and Faber (NF)
  Type of edema Periocular: 41/42
  Type of edema Ventral: 41/42
[3]
  Onset (NF): 41/42

## O=C1NCN(c2ccccc2)C12CCN(CCCC(c1ccc(F)cc1)c1ccc(F)cc1)CC2 [Fluspirilene]
[1]
  Lethality (NF): 32 NF

## C[C@]12CC[C@@H]3c4ccc(O)cc4CC[C@H]3[C@@H]1CC[C@@H]2O [beta-Estradiol]
Embryonic stage
  Type of edema Periocular: 42 # embryonic stages according to Nieuwkoop and Faber (NF)
[3]
  Onset (NF): 42 NF

## CC1=C(/C=C/C(C)=C/C=C/C(C)=C\C(=O)O)C(C)(C)CCC1 [13-cis-retinoic acid]
[2]
  Lethality (NF): 46 NF
Embryonic stage
  Type of edema Pronephric: 45 embryonic stages according to Nieuwkoop and Faber (NF)
  Lethality: 46 embryonic stages according to Nieuwkoop and Faber (NF)
  Type of edema Ventral: 41/42
Embryonic stage, + = cerebral edema extending dorso-anteriorly and displacing the eyes
  Type of edema Cerebral: 45+ embryonic stages according to Nieuwkoop and Faber (NF)
[3]
  Onset (NF): 41/42

## CC#CCOC(=O)c1c(C)nc2sc3c(c2c1N)CCC(O)C3 (stereo not shown) [SB 205384, 4-Amino-7-hydroxy-2-methyl-5,6,7,8-tetrahydrobenzo[b]thieno[2,3-b]pyridine-3-carboxylic acid but-2-ynyl ester]
[6]
  Lethality (NF): 46 NF
[7]
  Onset (NF): 40 NF

## CC(C)(C)c1cc(C=C(C#N)C#N)cc(C(C)(C)C)c1O [Tyrphostin A9, [[3,5-bis(1,1-Dimethylethyl)-4-hydroxyphenyl]methylene]-propanedinitrile]
[1]
  Lethality (NF): 32 NF

## CCCCCCCCCCCCCCCC(=O)OC(CC(=O)O)C[N+](C)(C)C.[Cl-] (racemic) [Palmitoyl-DL-Carnitine chloride]
[1]
  Lethality (NF): 32 NF

## CCN1/C(=C/C(C)=O)Sc2ccc(OC)cc21 [TG003, (Z)-1-(3-Ethyl-5-methoxy-2,3-dihydrobenzothiazol-2-ylidene)-propan-2-one]
[4]
  Lethality (NF): 40 NF

## CCCCCCCCCCCCCCCC(=O)NCC(COP(=O)([O-])OCC[N+](C)(C)C)OCC (racemic) [rac-2-Ethoxy-3-hexadecanamido-1-propylphosphocholine]
[1]
  Lethality (NF): 32 NF

## CC1(C(=O)O)C2CCC(O2)C1(C)C(=O)O (stereo not shown) [Cantharidic Acid]
[1]
  Lethality (NF): 32 NF

## CC[C@@]1(O)C(=O)OCc2c1cc1n(c2=O)Cc2cc3ccccc3nc2-1 [(S)-(+)-Camptothecin]
[6]
  Lethality (NF): 41/42
[7]
  Onset (NF): 39 NF
